# Results taken from patent publication US20200024234A1, “RADIOPHARMACEUTICAL COMPLEXES” (LUMIPHORE, INC., priority 2009, published 2020).
# {NH2C3} = aminopropyl group attached via phosphodiester linkage
# Tests used:
# [1] = in vivo; cited from earlier work
# [2] = cited from earlier work
# [3] = thorium(IV) complexes; cited from earlier work
# [4] = Gel electrophoresis mobility shift assay of complexation with metal cations
# Description: LUMI4® is an isophthalamide class macrocyclic chelate that selectively coordinates to metal cations including those of the lanthanide series. For use in certain applications, such as acting as a bifunctional chelating agent to attach a radioisotope to a site-directing molecule, it is necessary that the chelate be able to coordinate to the metal ion of interest in a kinetically facile and thermodynamically stable manner. […] In this experiment, a conjugate of LUMI4® with a small (18 base length) DNA oligomer was treated with a solution containing a metal cation. The electrophoretic mobility of the conjugate on a polyacrylamide gel was then compared with that of the conjugate which was not exposed to the solution of metal cation. […] To provide an additional comparison, the gel electrophoretic mobility of the DNA oligomer that was not conjugated to LUMI4® was measured with and without exposure to the metal cation solution under identical conditions.
# In particular, a solution of DNA oligomer (6 μL, 5 μM, all concentrations final) was mixed with a solution of metal cation (2 μL, 250 μM) or an equal volume of water. The solution was incubated at 55° C. for five minutes, whereupon the solutions were allowed to cool to ambient temperature and a solution of 50% formamide (7 μL) was added. The resulting solution was again heated to 55° C. for five minutes and then cooled to −20° C. briefly. […]
molecule,measurement,setting,value
"O=C(NCCCN(CCCCN(CCCNC(=O)c1cccc(=O)n1O)C(=O)c1cccc(=O)n1O)C(=O)c1cccc(=O)n1O)c1cccc(=O)n1O [3,4,3-LI(1,2-HOPO)]",toxicity at effective dosage,[1],acceptably low toxicity
same,effective dosage,[2]; in vivo,0.01 to 0.1 µmol/kg
same,"removal of Th(IV), Pu(IV) or Am(III) from the wound site and body compared with CaNa3-DTPA",[2]; injected ip or infiltrated into a wound,much more effective
same,oral activity,[2]; oral,useful oral activity
same,removal of injected or inhaled Pu(IV) and Am(III) compared with CaNa3-DTPA,"[2]; rodents, injected, infused or oral",removes more
O=C(O)CN(CCN(CC(=O)O)CC(=O)O)CCN(CC(=O)O)CC(=O)O [DTPA],Log K1,[3],30.34
NC(=O)CCCC(=O)NCCCCC1CN2CCNC(=O)c3cccc(c3O)C(=O)NCCN(CCNC(=O)c3cccc(c3O)C(=O)N1)CCN1CCNC(=O)c3cccc(c3O)C(=O)NCCN(CCNC(=O)c3cccc(c3O)C(=O)NCC1)CC2 (centres unmarked) [LUMI4®],stability of metal complex upon electrophoresis in the presence of the competing chelate EDTA,[4]; LUMI4 conjugated to a DNA oligomer,forms a stable complex
"unmodified oligonucleotide: DNA 18-base oligonucleotide 5′-AAGGTCATCCATGACAAC-3′ (SEQ ID NO: 1) with 5′-aminopropyl group (DNA, 5' {NH2C3}, backbone not given here)",gel mobility following treatment with the metal cation solution,"[4]; 20% polyacrylamide gel, 8 M urea, running buffer with 2 mM EDTA",unaffected
